Read-outs that look alike come from different tables or passages of the source.
Target: TRIP8b-HCN1c40 (Homo sapiens (Human), UniProt Q8IYB4)
Assay: TRIP8b-HCN1c40 AlphaScreen assay
Assay type: binding
Method: AlphaScreen Assay. 20 nM ofGST-tagged HCNlc40 protein (corresponding to the C terminal 40 amino acids of HCN1) was incubated with 200 nM of His-tagged TRIP8b(241-602) and varying concentrations of the test compound as described in our prior report (Han et al., 2015). After a 3 h incubation, anti-GST AlphaScreen acceptor beads were added for 1.5 h followed by AlphaScreen nickel chelate donor beads for 1.5 h. AlphaScreen signal was quantified using a PerkinElmer (Waltham, MA) EnSpire multimode plate reader.

[1] = read-out: TRIP8b-HCN1c40 Alphascreen IC50
[2] = activity ranges, read-out: TRIP8b-HCN1c40 Alphascreen IC50 activity

Sequence of TRIP8b-HCN1c40 (Q8IYB4 265-626): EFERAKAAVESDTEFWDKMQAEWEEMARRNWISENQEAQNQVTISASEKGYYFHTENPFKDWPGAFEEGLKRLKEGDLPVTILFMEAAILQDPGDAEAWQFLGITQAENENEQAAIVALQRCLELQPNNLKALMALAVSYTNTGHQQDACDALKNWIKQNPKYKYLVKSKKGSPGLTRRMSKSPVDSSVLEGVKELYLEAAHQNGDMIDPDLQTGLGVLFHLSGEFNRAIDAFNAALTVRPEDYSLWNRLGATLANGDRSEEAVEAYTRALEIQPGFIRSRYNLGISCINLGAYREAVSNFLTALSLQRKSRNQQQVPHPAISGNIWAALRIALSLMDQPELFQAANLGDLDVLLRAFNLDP

SMILES | IC50 [1] | IC50 [2]
CCN(CC)C(=O)COc1ccc(-c2ccc(F)cc2)cc1CN1CCN(C)CC1 [NUCC-0201100] | 150 µM | –
CN1CCN(Cc2cc(-c3ccc(F)cc3)ccc2OCC(=O)NC2CC2)CC1 [NUCC-0201101] | 110 µM | –
CN1CCN(Cc2cc(-c3ccc(F)cc3)ccc2OCC(=O)N(C)Cc2ccccc2)CC1 [NUCC-0201102] | 91 µM | –
O=Cc1cc(-c2ccc(F)cc2)ccc1O [NUCC-0201191] | 58 µM | –
CN1CCN(Cc2cc(OC(F)(F)F)ccc2OCC(=O)NCc2ccc(Cl)cc2)CC1 [NUCC-0201228] | 160 µM | –
CN1CCN(Cc2cc(-c3ccc(F)cc3)ccc2OCC(=O)NCCN2CCCCC2)CC1 [NUCC-0201230] | > 200 µM | –
Cc1ccc(-c2ccc(OCC(=O)NCc3ccc(S(N)(=O)=O)cc3)c(CN3CCCN(C)CC3)c2)cc1 [NUCC-0201597] | > 40 µM | –
Cc1ccc(-c2ccc(OCC(=O)NCc3ccccc3)c(CN3CCCN(C)CC3)c2)cc1 [NUCC-0201598] | 20 µM | 10 to 20 µM
COc1ccc(CNC(=O)COc2ccc(-c3ccc(C)cc3)cc2CN2CCCN(C)CC2)c(OC)c1 [NUCC-0201599] | 15 µM | 10 to 20 µM
Cc1ccc(-c2ccc(OCC(=O)Nc3ccc4c(c3)OCO4)c(CN3CCCN(C)CC3)c2)cc1 [NUCC-0201600] | 9.2 µM | 5 to 10 µM
CCN(CCO)Cc1cc(-c2ccc(C)cc2)ccc1OCC(=O)NCc1ccc(O)cc1 [NUCC-0201605] | 35 µM | –
Cc1ccc(-c2ccc(OCC(=O)N[C@H](C)c3ccccc3)c(CN3CCOCC3)c2)cc1 [NUCC-0201606] | 28 µM | 20 to 40 µM
Cc1ccc(-c2ccc(OCC(=O)NCc3ccc(Cl)cc3)c(CN3CCC(N(C)C)CC3)c2)cc1 [NUCC-0201607] | 5.5 µM | 5 to 10 µM
Cc1ccc(-c2ccc(OCC(=O)Nc3ccc(Cl)cc3)c(CN3CCC(N(C)C)CC3)c2)cc1 [NUCC-0201608] | 7 µM | 5 to 10 µM
Cc1ccc(-c2ccc(OCC(=O)NCc3ccc(F)cc3)c(CN3CCC(N(C)C)CC3)c2)cc1 [NUCC-0201609] | 16 µM | 10 to 20 µM
Cc1ccc(-c2ccc(OCC(=O)NCc3cccc(Cl)c3)c(CN3CCC(N(C)C)CC3)c2)cc1 [NUCC-0201610] | 5 µM | 2 to 5 µM

SMILES | IC50 [1] | IC50 [2]
COc1ccc([C@H](C)NC(=O)COc2ccc(-c3ccc(C)cc3)cc2CN2CCC(N(C)C)CC2)cc1 [NUCC-0201611] | > 40 µM | –
Cc1ccc(-c2ccc(OCC(=O)NCc3cnc[nH]3)c(CN3CCC(N(C)C)CC3)c2)cc1 [NUCC-0201612] | > 40 µM | –
CC(C)(C)c1ccc(-c2ccc(OCC(=O)NCc3ccc(Cl)cc3)c(CN3CCNCC3)c2)cc1 [NUCC-0201615] | 6.3 µM | 5 to 10 µM
Cc1ccccc1-c1ccc(OCC(=O)NCc2ccc(Cl)cc2)c(CN2CCNCC2)c1 [NUCC-0201617] | 7.8 µM | 5 to 10 µM
Cc1ccc(NC(=O)COc2ccc(-c3cccc(C)c3)cc2CN2CC[C@H](N)C2)cc1 [NUCC-0201618] | 8.8 µM | 5 to 10 µM
COc1ccc(NC(=O)COc2ccc(-c3cccc(C)c3)cc2CN2CC[C@H](N)C2)cn1 [NUCC-0201619] | 24 µM | 20 to 40 µM
COc1cc(NC(=O)COc2ccc(-c3cccc(C)c3)cc2CN2CC[C@H](N)C2)cc(OC)c1OC [NUCC-0201620] | 13 µM | 10 to 20 µM
Cc1cccc(-c2ccc(OCC(=O)Nc3ccc(Cl)c(Cl)c3)c(CN3CC[C@H](N)C3)c2)c1 [NUCC-0201621] | 1.3 µM | 1 to 2 µM
Cc1cccc(-c2ccc(OCC(=O)Nc3cccc(S(C)(=O)=O)c3)c(CN3CC[C@H](N)C3)c2)c1 [NUCC-0201622] | 19 µM | 10 to 20 µM
CNC(=O)c1ccc(NC(=O)COc2ccc(-c3cccc(C)c3)cc2CN2CC[C@H](N)C2)cc1 [NUCC-0201623] | 22 µM | 20 to 40 µM
Cc1cccc(-c2ccc(OCC(=O)Nc3ccc(O)cc3)c(CN3CC[C@H](N)C3)c2)c1 [NUCC-0201624] | 20 µM | 10 to 20 µM
Cc1cccc(-c2ccc(OCC(=O)NCc3ccc(Cl)cc3)c(CN3CC[C@H](N)C3)c2)c1 [NUCC-0201625] | 6.1 µM | 5 to 10 µM
Cc1cccc(-c2ccc(OCC(=O)NCc3cccnc3)c(CN3CC[C@H](N)C3)c2)c1 [NUCC-0201626] | > 40 µM | –
Cc1cccc(-c2ccc(OCC(=O)Nc3cc(O)c(O)c(O)c3)c(CN3CC[C@H](N)C3)c2)c1 [NUCC-0201628] | 7.8 µM | 5 to 10 µM
Cc1cc(C)c(-c2ccc(OCC(=O)NCc3ccc(Cl)cc3)c(CN3CCNCC3)c2)c(C)c1 [NUCC-0201629] | 3.1 µM | 2 to 5 µM
CN1CCN(Cc2cc(-c3ccc(Cl)cc3)ccc2OCCNS(=O)(=O)c2ccc(Cl)cc2)CC1 [NUCC-0201974] | 1.8 µM | 1 to 2 µM

Results, then the compound that gave them:

IC50 [1] | IC50 [2] | SMILES
15 µM | 10 to 20 µM | CN1CCN(Cc2cc(-c3ccc(F)cc3)ccc2OCC(=O)NCc2ccc(C(F)(F)F)cc2)CC1 [NUCC-0201103]
92 µM | – | COc1ncc(-c2ccc(OCC(=O)NCc3ccc(Cl)cc3)c(CN3CCN(C)CC3)c2)c(OC)n1 [NUCC-0201189]
7.1 µM | 5 to 10 µM | CN1CCN(Cc2cc(Oc3ccc(F)cc3)ccc2OCC(=O)NCc2ccc(Cl)cc2)CC1 [NUCC-0201229]
8.1 µM | 5 to 10 µM | Cc1ccc(-c2ccc(OCC(=O)NCc3ccc(Cl)cc3)c(CN3CCOCC3)c2)cc1 [NUCC-0201604]
7.2 µM | 5 to 10 µM | Cc1ccc(-c2ccc(OCC(=O)NCc3ccc(Cl)cc3)c(CN3CCNCC3)c2)cc1 [NUCC-0201614]
5.7 µM | 5 to 10 µM | CC(C)c1ccc(-c2ccc(OCC(=O)NCc3ccc(Cl)cc3)c(CN3CCNCC3)c2)cc1 [NUCC-0201616]
< 0.74 µM | – | CN1CCN(Cc2cc(-c3ccc(Cl)c(Cl)c3)ccc2OCC(=O)NCc2ccc(Cl)cc2)CC1 [NUCC-0201708]
2.8 µM | 2 to 5 µM | CN1CCN(Cc2cc(-c3ccc(F)c(C(F)(F)F)c3)ccc2OCC(=O)NCc2ccc(Cl)cc2)CC1 [NUCC-0201709]
2.9 µM | 2 to 5 µM | CSc1ccc(-c2ccc(OCC(=O)NCc3ccc(Cl)cc3)c(CN3CCN(C)CC3)c2)cc1 [NUCC-0201710]
3.9 µM | 2 to 5 µM | CN1CCN(Cc2cc(-c3ccc(C(F)(F)F)cc3)ccc2OCC(=O)NCc2ccc(Cl)cc2)CC1 [NUCC-0201711]
3 µM | 2 to 5 µM | CN1CCN(Cc2cc(-c3ccc(Cl)cc3)ccc2OCC(=O)NCc2ccc(Cl)cc2)CC1 [NUCC-0201712]
4.7 µM | 2 to 5 µM | C=Cc1ccc(-c2ccc(OCC(=O)NCc3ccc(Cl)cc3)c(CN3CCN(C)CC3)c2)cc1 [NUCC-0201713]
1.1 µM | 1 to 2 µM | CN1CCN(Cc2cc(-c3c(Cl)cc(Cl)cc3Cl)ccc2OCC(=O)NCc2ccc(Cl)c(Cl)c2)CC1 [NUCC-0201969]
< 0.74 µM | – | CN1CCN(Cc2cc(-c3c(Cl)cc(Cl)cc3Cl)ccc2OCC(=O)NCc2ccc(Cl)cc2)CC1 [NUCC-0201970]
6.6 µM | 5 to 10 µM | CN1CCN(Cc2cc(-c3ccc(CCl)cc3)ccc2OCC(=O)NCc2ccc(Cl)c(Cl)c2)CC1 [NUCC-0201971]
5 µM | – | CN1CCN(Cc2cc(-c3ccc(Cl)cc3)ccc2OCC(=O)NCc2ccc(Cl)cc2)CC1 [NUCC-0201972]
1.3 µM | 1 to 2 µM | CN1CCN(Cc2cc(-c3ccc(Cl)c(Cl)c3)ccc2OCC(=O)NCc2ccc(Cl)cc2)CC1 [NUCC-0201973]
